Results taken from PubChem BioAssay (NCI).
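In this assay, cells in 96-well plates receive the compound at five concentrations for 48 hours. Endpoints are linearly interpolated between the surrounding concentrations. Definition used: TGI = concentration required for complete inhibition of growth.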

What was measured:
Test in all cases: NCI tumour cell line growth inhibition, 48 h
[1] = test system: PC-3 prostate
[2] = test system: COLO 205 colon
[3] = test system: T-47D breast
[4] = test system: HCT-116 colon
[5] = test system: CCRF-CEM leukemia
[6] = test system: SW-620 colon
[7] = test system: SNB-75 CNS
[8] = test system: SK-OV-3 ovarian
[9] = test system: NCI/ADR-RES ovarian
[10] = test system: MCF7 breast
[11] = test system: RXF 393 renal
[12] = test system: BT-549 breast
[13] = test system: U251 CNS
[14] = test system: CAKI-1 renal
[15] = test system: HCT-15 colon
[16] = test system: NCI-H522 lung
[17] = test system: SF-539 CNS

Structure (SMILES) | TGI [1] | TGI [2] | TGI [3] | TGI [4] | TGI [5] | TGI [6] | TGI [7] | TGI [8] | TGI [9] | TGI [10] | TGI [11] | TGI [12] | TGI [13] | TGI [14] | TGI [15] | TGI [16] | TGI [17]
COc1cc([N+](=O)[O-])cc2c1NC(=O)C2(C)SC (centres undefined) | > 100 µM | > 100 µM | > 100 µM | > 100 µM | > 100 µM | > 100 µM | 90.6 µM | 69.7 µM | > 100 µM | > 100 µM | > 100 µM | > 100 µM | > 100 µM | > 100 µM | > 100 µM | > 100 µM | –
O=C1c2ccccc2C(=O)c2c1sc1nc3ccccc3n21 | 6.79 µM | 3.61 µM | 9.02 µM | 3.25 µM | 5.48 µM | – | 46.1 µM | 19.1 µM | 4.7 µM | 3.84 µM | 3.31 µM | 3.45 µM | 9.37 µM | 4.27 µM | – | – | 3.81 µM
Clc1ccc(C2=Cc3nc2c(-c2ccccc2)c2ccc([nH]2)c(-c2ccccc2)c2nc(c(-c4ccccc4)c4ccc([nH]4)c3-c3ccccc3)C=C2)cc1 | > 62.5 µM | > 62.5 µM | > 62.5 µM | > 62.5 µM | > 62.5 µM | > 62.5 µM | > 62.5 µM | > 62.5 µM | > 62.5 µM | > 62.5 µM | > 62.5 µM | > 62.5 µM | > 62.5 µM | 49.9 µM | > 62.5 µM | > 62.5 µM | > 62.5 µM
Nc1nc(Cl)cc(NCC2(CO)CC=CC2)n1 | > 100 µM | > 100 µM | > 100 µM | > 100 µM | > 100 µM | > 100 µM | > 100 µM | > 100 µM | > 100 µM | > 100 µM | > 100 µM | > 100 µM | > 100 µM | > 100 µM | > 100 µM | > 100 µM | > 100 µM
CCCCCCCCCCCCCCCCCCOC(COP(=O)(O)OCC1OC(n2cc(F)c(=O)[nH]c2=O)CC1O)COP(=O)(O)OCC1OC(n2ccc(N)nc2=O)C(O)C1O (centres undefined) | 78.8 µM | > 72.9 µM | > 100 µM | > 100 µM | > 81.2 µM | > 100 µM | > 100 µM | > 100 µM | > 100 µM | > 100 µM | 49.6 µM | > 93.2 µM | 50.7 µM | > 100 µM | > 100 µM | > 100 µM | 31.1 µM
CCOC(=O)n1ccc2c(C(=O)OC)c(C(=O)OC)cc(/C(=C/C(=O)OC)C(=O)OC)c21 | > 100 µM | > 100 µM | > 100 µM | > 100 µM | > 100 µM | > 100 µM | > 100 µM | > 100 µM | > 100 µM | > 100 µM | > 100 µM | > 100 µM | > 100 µM | > 100 µM | – | > 100 µM | > 100 µM
COc1ccccc1CC1(O)OC(=O)c2ccccc21 (centres undefined) | > 100 µM | > 100 µM | > 100 µM | > 100 µM | > 100 µM | > 100 µM | > 100 µM | > 100 µM | > 100 µM | > 100 µM | > 100 µM | > 100 µM | > 100 µM | > 100 µM | > 100 µM | > 100 µM | > 100 µM
